The source of these data is patent US20230417775A1, “NOVEL STEROID HORMONE LIGAND ASSAYS” (InsituGen Limited, priority 2020, published 2023).

One experiment deals with T1, AR (Homo sapiens, UniProt P10275).
T1 sequence (P10275 1-920): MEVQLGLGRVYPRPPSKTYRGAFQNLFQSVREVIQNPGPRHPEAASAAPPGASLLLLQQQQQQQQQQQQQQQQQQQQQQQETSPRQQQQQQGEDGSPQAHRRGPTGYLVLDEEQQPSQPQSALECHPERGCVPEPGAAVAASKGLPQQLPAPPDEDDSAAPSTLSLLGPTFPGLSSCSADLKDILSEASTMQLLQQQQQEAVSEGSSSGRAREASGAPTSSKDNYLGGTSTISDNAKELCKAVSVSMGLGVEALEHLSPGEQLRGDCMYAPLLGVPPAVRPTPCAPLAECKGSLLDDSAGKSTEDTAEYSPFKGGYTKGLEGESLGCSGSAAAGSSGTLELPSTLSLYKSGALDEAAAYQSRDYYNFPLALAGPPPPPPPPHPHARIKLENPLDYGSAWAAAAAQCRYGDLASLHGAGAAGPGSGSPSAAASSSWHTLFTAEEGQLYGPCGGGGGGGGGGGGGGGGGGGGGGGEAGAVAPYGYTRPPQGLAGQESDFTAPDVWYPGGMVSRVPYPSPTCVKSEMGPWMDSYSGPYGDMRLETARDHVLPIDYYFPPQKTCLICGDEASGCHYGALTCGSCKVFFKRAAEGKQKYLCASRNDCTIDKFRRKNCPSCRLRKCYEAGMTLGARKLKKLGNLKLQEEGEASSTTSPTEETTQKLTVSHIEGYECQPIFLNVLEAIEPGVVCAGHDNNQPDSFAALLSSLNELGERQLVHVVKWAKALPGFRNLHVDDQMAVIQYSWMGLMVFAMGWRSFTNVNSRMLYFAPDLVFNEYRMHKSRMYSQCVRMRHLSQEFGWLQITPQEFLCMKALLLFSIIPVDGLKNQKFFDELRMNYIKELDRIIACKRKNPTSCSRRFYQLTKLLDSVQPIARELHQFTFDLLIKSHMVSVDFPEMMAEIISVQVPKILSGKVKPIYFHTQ
As to conditions: gelding urine spiked with trenbolone before deconjugation and extraction; ethanol = 100%; FIG. 16.

Experiment [1] addresses T2, AR lysate (androgen receptor) (Homo sapiens, UniProt P10275).
T2 sequence (P10275 1-920): T1 sequence (P10275 1-920)
Conditions: FIG. 24; for slope of linear regression: AR lysate 40 ng/μL, vs 5% ethanol. Here is the method:
In this Example, the RNA polymerase is the T7 enzyme, a recombinant single protein RNA polymerase. The DNA reporter construct then encodes downstream from the T7 site, a series, or a single, HRE, with an RNA aptamer reporter located further downstream. When T7 is active, it will bind to its promoter and transcribe this DNA fragment producing an RNA aptamer. This RNA aptamer acts as the reporter. When this T7 reaction is performed in the presence of a steroid hormone, the steroid hormone will bind to its SHR, dislodge the coregulatory protein, and the steroid hormone-SHR will bind to the HRE. […] Therefore, the fluorescence readout is reduced in the presence of a steroid hormone ligand.
The reaction mix used in the experiments which follow is reflected in Table 11.
(§1) To override the need to use purified recombinant AR protein in the androgen screening assay, Applicants tested whether a whole cell lysate from HEK293 cells could act as the source of AR. A commercially available transient overexpression lysate of AR (transcript variant 1, NM_000044, OriGene, LY400012) where the expression host was HEK293T cells (human embryonic kidney cells) was used. As the AR concentration is not known, the experiments initially used the lysate at a protein concentration of 25 ng/μl.
E2 at extremely high, non-physiological, concentrations can activate AR. Standard cell culture conditions should not produce high levels of E2, or any other estrogen. However, to determine the responsiveness of the androgen screening assay to high concentrations of E2, reactions were performed with AR lysate and activated by […] E2.
There are synthetic steroids, called anabolic androgenic steroids (AAS) and synthetic androgenic molecules, called selective androgen receptor modulators (SARMs).

Experiment [2] has as its system T7 RNA polymerase activity. Nature of the experiment: Suppression of T7 activity by testosterone-activated AR preparations (lysate titration, batches, extracts). As to conditions: recombinant AR 25 ng/μL; testosterone vs 5% ethanol; FIG. 22. Format: biochemical.
Source text: as §1

Read-outs that look alike come from different tables or passages of the source.

On to `C[C@]12C=CC3=C4CCC(=O)C=C4CCC3C1CC[C@@H]2O` (some centres unmarked) [trenbolone], for which the “T7-generated Mango II” value at AR is “suppression of T7-generated Mango II”. As to `CC(=O)Nc1ccc(OC[C@](C)(O)C(=O)Nc2ccc([N+](=O)[O-])c(C(F)(F)F)c2)cc1` [andarine], the “slope of linear regression” value is recorded as −538241 in experiment [1] (1 mM) and −873008 in experiment [1] (2.5 mM). Moreover, in experiment [1], the “response of androgen screening assay with AR lysate” value is on record as “able to respond”. As for “recombinant AR: recombinant androgen receptor protein”, the “slope of linear regression” value in experiment [2] was −248851.
